One may read the Kd as the equilibrium constant for the complex coming apart. A word on the IC50: it is the concentration that inhibits the measured activity by half.

The target in experiment [1] is T1, full-length HSET (FL HSET) (Homo sapiens, UniProt Q9BW19).
T1 construct: 5 nM full-length human N-terminal His-tag HSET; His-tag (N)
T1 sequence (Q9BW19 1-673): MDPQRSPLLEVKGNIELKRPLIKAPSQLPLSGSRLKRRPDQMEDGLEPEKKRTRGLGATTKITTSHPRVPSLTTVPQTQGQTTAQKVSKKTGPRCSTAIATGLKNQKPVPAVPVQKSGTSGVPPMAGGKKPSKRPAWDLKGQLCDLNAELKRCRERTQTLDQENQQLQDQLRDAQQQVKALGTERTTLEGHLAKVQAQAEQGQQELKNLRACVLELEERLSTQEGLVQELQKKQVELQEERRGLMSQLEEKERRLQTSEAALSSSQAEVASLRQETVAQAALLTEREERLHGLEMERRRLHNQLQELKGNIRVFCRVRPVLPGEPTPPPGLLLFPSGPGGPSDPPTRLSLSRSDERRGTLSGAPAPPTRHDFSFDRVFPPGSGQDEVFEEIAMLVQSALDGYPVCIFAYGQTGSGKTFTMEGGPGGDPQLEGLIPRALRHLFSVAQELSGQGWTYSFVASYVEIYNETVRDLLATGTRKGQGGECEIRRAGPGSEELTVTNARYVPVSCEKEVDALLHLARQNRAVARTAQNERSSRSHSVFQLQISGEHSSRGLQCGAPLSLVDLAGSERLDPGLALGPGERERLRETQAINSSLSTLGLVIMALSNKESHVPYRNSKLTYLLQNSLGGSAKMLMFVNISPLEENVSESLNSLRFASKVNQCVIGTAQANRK
The experiment in a line: Fluorescence polarization probe Kd determination. In kind it is binding. On the procedure: (§1) Steady-state fluorescence polarization binding assays were performed using the fluorescence-tagged probe 37. All assays were performed in a black ProxiPlate-384 Plus plate (PerkinElmer, 6008260) in a 10 μL volume in buffer containing 20 mM HEPES pH 7.5, 200 mM NaCl, 1 mM TCEP, 10 mM MgCl2, 0.1 mM Triton X-100, and 5% glycerol (v/v). Full-length human N-terminal His-tag HSET was used, with a final concentration of 2.5 nM 37 probe. The assays were sealed and incubated in the dark at 25 °C and then the FP signal was read on an EnVision multimode plate reader (PerkinElmer Life Sciences) using excitation at 620 nm and parallel and perpendicular emissions at 688 nm. All data processing was done using Prism (GraphPad Software).
For the probe Kd determinations, FL HSET final concentrations were used between 2000 and 0.5 nM. When present, preformed microtubules (Universal Biologicals Cambridge, bovine MT001-XL or porcine MT002-XL), which were reconstituted in 15 mM PIPES pH 7, 20 μM paclitaxel, or reconstitution buffer alone, were preincubated with HSET for 10 min and then added to the probe. The plate was read after 3 h of incubation in the dark at 25 °C. Kd values were determined using a 1:1 site binding model of the fluorescence polarization versus protein concentration.

For experiment [2], the target named is T2, recombinant full-length HSET (Homo sapiens, UniProt Q9BW19).
T2 construct: 5 nM full-length human N-terminal His-tag HSET; His-tag (N)
T2 sequence (Q9BW19 1-673): T1 sequence (Q9BW19 1-673)
The experiment in a line: ADP-Glo HSET assay (3 μM ATP), microtubule-stimulated ATPase. Particulars: preformed microtubules, 3 μM ATP; mean (±SD) n ≥ 3 (37 n = 2, 38 single determination) (Table 3); read-out: HSET ADP-Glo IC50. In kind it is biochemical. The essentials:
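His-tagged full-length HSET (5 nM) or GST-Eg5 motor domain (4 nM), with 70 μg/mL paclitaxel-stabilised microtubules in HEPES pH 6.8 buffer, was preincubated with compound for 10 min. ATP was then added (3 or 500 μM for HSET, 4.8 μM for Eg5), followed by 80 min at 25 °C and ADP-Glo luminescence. IC50 was fitted with a four-parameter logistic.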
On the technique in general: In ADP-Glo the light output rises with the ADP produced.

For experiment [3], the target named is T1, full-length HSET (FL HSET). The experiment can be described thus: Competitive binding fluorescence polarization assay (displacement of probe 37). The note with it: 400 nM FL HSET, 2.5 nM probe 37; read-out: IC50, displacement of FP probe 37 from FL HSET. As to the method: as §1
For the competition assays, 100 nL of compound dissolved in DMSO or DMSO alone was added to create 11 pt concentration response curves between 100 and 0.001 μM final concentrations. This assay used 400 nM FL HSET, and the plate was read after 2 h of incubation in the dark at 25 °C. IC50 values were determined as for the ATPase assay using a four-parameter statistical logistic curve fit.
(Polarisation of emitted light reports the rotation of a fluorescent probe.)

Take `CCCOC(=O)c1sc(NC(=O)C[C@H](CCCNC(=O)CCCCC[N+]2=C(/C=C/C=C/C=C3/N(C)c4ccc(S(=O)(=O)O)cc4C3(C)C)C(C)(C)c3cc(S(=O)(=O)O)ccc32)NC(=O)c2cccc(-c3noc(C)n3)c2)nc1C` [Compound 37, 3,3-Dimethyl-1-(6-(((S)-4-(3-(5-methyl-1,2,4-oxadiazol-3-yl)benzamido)-6-((4-methyl-5-(propoxycarbonyl)thiazol-2-yl)amino)-6-oxohexyl)amino)-6-oxohexyl)-5-sulfo-2-((1E,3E)-5-((E)-1,3,3-trimethyl-5-sulfoindolin-2-ylidene)penta-1,3-dien-1-yl)-3H-indol-1-ium]: the Kd came out at 675 ± 148 nM in experiment [1] (FL HSET + MT buffer only) and 371 nM in experiment [1] (isolated full-length HSET, no microtubules). For the same compound, the IC50 in experiment [2] came out at 257 nM.

In the case of `Nc1ncnc2c1ncn2[C@@H]1O[C@H](COP(=O)(O)OP(=O)(O)OP(=O)(O)O)[C@@H](O)[C@H]1O` [ATP, adenosine 5′-triphosphate], in experiment [3], the IC50 is 436 ± 56 nM.

`Nc1ncnc2c1ncn2[C@@H]1O[C@H](COP(=O)(O)OP(=O)(O)O)[C@@H](O)[C@H]1O` [ADP, adenosine diphosphate]: in experiment [3], the IC50 was determined as 400 ± 66 nM.

The values are drawn from publication PMC9969401, “Discovery of 2-(3-Benzamidopropanamido)thiazole-5-carboxylate Inhibitors of the Kinesin HSET (KIFC1) and the Development of Cellular Target Engagement Probes” (Journal of Medicinal Chemistry, 2023).
